From US8318667B2, “Glucagon receptor antagonist compounds, compositions containing such compounds and methods of use” (Merck Sharp & Dohme Corp., priority 2009, dated 2012) come the findings set out here.

In the assay the target is T1, human glucagon receptor (Homo sapiens, UniProt P47871).
T1 construct: expressed in transfected cells; cell membranes used
The assay can be described thus: Glucagon Receptor Binding Assay (125I-glucagon, SPA, CHO cell membranes). As to conditions: for IC50: inhibition of 125I-glucagon binding to membranes of CHO cells expressing cloned human glucagon receptor, value for the most active stereoisomer prepared; for relative potency as glucagon receptor antagonist among the stereoisomers prepared: comparison of stereoisomers of the same example, assay not stated. On the procedure: A stable CHO (Chinese hamster ovary) cell line expressing cloned human glucagon receptor was maintained as described (Chicchi, et. al. J Biol Chem 272, 7765-9(1997); Cascieri, et. al. J Biol Chem 274, 8694-7(1999)). To determine antagonistic binding affinity of compounds, 0.001-0.003 mg of cell membranes from these cells were pre-incubated with 0.100 mg WGA-coated PVT SPA beads (Amersham) for 20 minutes at room temperature in […] of a buffer containing 50 mM Tris-HCl (pH 7.5), 5 mM MgCl2, 2 mM EDTA, 0.1% BSA and 3% glycerol in Costar 384 well plates with clear bottoms (#3706). Next, 25 μL of ^125I-Glucagon (New England Nuclear, MA) (1×10^−14 mol per well) and either 1 μL solutions of test compounds or 0.001 mM unlabeled glucagon or DMSO were added and mixed. After 4-12 hours incubation at room temperature, the radioactivity bound to the cell membranes was determined in a radioactive emission detection counter (Wallac-Microbeta). Data were analyzed using the Data Analyzer software program of Merck & Co., Inc. The IC50 values were calculated using non-linear regression analysis assuming single-site competition.

T1 sequence (P47871 26-477): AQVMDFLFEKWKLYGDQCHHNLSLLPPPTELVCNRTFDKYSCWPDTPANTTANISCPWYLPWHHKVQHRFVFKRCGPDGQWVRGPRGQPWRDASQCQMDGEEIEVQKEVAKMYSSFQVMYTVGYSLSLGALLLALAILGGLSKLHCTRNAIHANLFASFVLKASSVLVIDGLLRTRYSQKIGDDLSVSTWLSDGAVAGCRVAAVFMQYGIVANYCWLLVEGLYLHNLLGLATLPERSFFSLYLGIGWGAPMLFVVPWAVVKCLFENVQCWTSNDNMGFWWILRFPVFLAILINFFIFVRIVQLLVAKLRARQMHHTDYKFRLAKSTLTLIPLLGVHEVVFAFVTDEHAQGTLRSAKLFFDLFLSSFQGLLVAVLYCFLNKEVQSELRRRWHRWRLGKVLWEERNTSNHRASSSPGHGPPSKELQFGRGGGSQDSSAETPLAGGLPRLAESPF

Broadly, the IC50 is the concentration needed to halve the response being measured. With `CCCC(c1ccc(C(=O)NCCC(=O)O)cc1)C(c1ccc(Cl)cc1)c1c2cc(C(F)(F)F)cc(Cl)c2nn1-c1ccccc1` (single isomer, unassigned) [Example 3, N-[4-(1-{(4-Chlorophenyl)[7-Chloro-2-Phenyl-5-(Trifluoromethyl)-2H-Indazol-3-Yl]Methyl}Butyl)Benzoyl]-β-Alanine], the IC50 is 37 nM.
`CCCC(c1ccc(C(=O)NCCC(=O)O)cc1)C(c1ccc(Cl)cc1)c1c2cc(C(F)(F)F)cc(Cl)c2nn1CC(F)(F)F` (single isomer, unassigned) [Example 17, N-[4-(1-{(4-CHLOROPHENYL)[7-CHLORO-2-(2,2,2- TRIFLUOROETHYL)-5-(TRIFLUOROMETHYL)-2H-INDAZOL-3- YL]METHYL}BUTYL)BENZOYL]-β-ALANINE]: the half-maximal inhibitory concentration (IC50) amounted to 3.9 nM.
Regarding `CCCC(c1ccc(C(=O)NCCC(=O)O)cc1)C(c1ccc(Cl)cc1)c1n[nH]c2c(F)cc(-c3ccc(C)cc3)cc12` (single isomer, unassigned) [Example 21, N-[4-(1-{(4-Chlorophenyl)[7-Fluoro-5-(4-Methylphenyl)-1H-Indazol-3-Yl]Methyl}Butyl)Benzoyl]-β-Alanine], the “relative potency as glucagon receptor antagonist among the stereoisomers prepared” value (“relative potency” for short) is given as “the more potent glucagon receptor antagonist” and the IC50 was 2.6 nM.
For the compound `CCCC(c1ccc(C(=O)NCCC(=O)O)cc1)C(c1ccc(Cl)cc1)c1c2cc(C(F)(F)F)cc(Cl)c2nn1C` (single isomer, unassigned) [Example 4, N-[4-(1-{(4-Chlorophenyl)[7-Chloro-2-Methyl-5-(Trifluoromethyl)-2H-Indazol-3-Yl]Methyl}Butyl)Benzoyl]-β-Alanine], the “relative potency” value is reported as “most potent glucagon receptor antagonist of the four stereoisomeric compounds” and the IC50 came out at 2.6 nM.
`CCCC(c1ccc(C(=O)NCCC(=O)O)cc1)C(c1ccc(Cl)cc1)c1n[nH]c2ccc(C(F)(F)F)cc12` (single isomer, unassigned) [Example 5, N-[4-(1-{(4-CHLOROPHENYL)[5-(TRIFLUOROMETHYL)-1H- INDAZOL-3-YL]METHYL}BUTYL)BENZOYL]-β-ALANINE] showed a concentration for half-maximal inhibition (IC50) of 0.8 nM.
Compound `CCCC(c1ccc(C(=O)NCCC(=O)O)cc1)C(c1ccc(Cl)cc1)c1c2cc(Cl)cc(Cl)c2nn1C` (single isomer, unassigned) [Example 19, N-[4-(1-{(4-CHLOROPHENYL)[2-METHYL-5,7-DICHLORO-2H-INDAZOL-3- YL]METHYL}BUTYL)BENZOYL]-β-ALANINE] came in with an IC50 of 2 nM.
In the case of `CCCC(c1ccc(C(=O)NCCC(=O)O)cc1)C(c1ccc(Cl)cc1)c1n[nH]c2c(F)cc(C#N)cc12` (single isomer, unassigned) [Example 36, N-(4-{1-[(4-Chlorophenyl)(5-Cyano-7-Fluoro-1H-Indazol-3-Yl)Methyl]Butyl}Benzoyl)-β-Alanine], the “relative potency” value is on record as “the more potent glucagon receptor antagonist” and the concentration for half-maximal inhibition (IC50) was 4.3 nM.
`CCCC(c1ccc(C(=O)NCCC(=O)O)cc1)C(c1ccc(Cl)cc1)c1nn(C)c2c(F)cc(F)cc12` (single isomer, unassigned) [Example 10, N-[4-(1-{(4-CHLOROPHENYL)[1-METHYL-5,7-DIFLUORO-1H- INDAZOL-3-YL]METHYL}BUTYL)BENZOYL]-β-ALANINE] displayed an IC50 of 4 nM.
With `CCCC(c1ccc(C(=O)NCCC(=O)O)cc1)C(c1ccc(Cl)cc1)c1n[nH]c2c(Cl)cc(Cl)cc12` (single isomer, unassigned) [Example 8, N-[4-(1-{(4-CHLOROPHENYL)[5,7-DICHLORO-1H-INDAZOL-3- YL]METHYL}BUTYL)BENZOYL]-β-ALANINE], the half-maximal inhibitory concentration (IC50) was determined as 0.4 nM.
Consider `CCCC(c1ccc(C(=O)NCCC(=O)O)cc1)C(c1ccc(Cl)cc1)c1nn(C)c2c(Cl)cc(Cl)cc12` (single isomer, unassigned) [Example 12, N-[4-(1-{(4-CHLOROPHENYL)[1-METHYL-5,7-DICHLORO-1H-INDAZOL-3- YL]METHYL}BUTYL)BENZOYL]-β-ALANINE], for which the IC50 is 0.9 nM.
`CCCC(c1ccc(C(=O)NCCC(=O)O)cc1)C(c1ccc(Cl)cc1)c1nn(C)c2c(C)cc(Cl)cc12` (single isomer, unassigned) [Example 11, N-[4-(1-{(4-CHLOROPHENYL)[1,7-DIMETHYL-5-CHLORO-1H- INDAZOL-3-YL]METHYL}BUTYL)BENZOYL]-β-ALANINE] yielded a half-inhibitory concentration (IC50) of 0.7 nM.
Still for that read-out and setting: as for `CCCC(c1ccc(C(=O)NCCC(=O)O)cc1)C(c1ccc(Cl)cc1)c1c2cc(C(F)(F)F)ccc2nn1C` (single isomer, unassigned) [Example 13, N-[4-(1-{(4-CHLOROPHENYL)[2-METHYL-5- (TRIFLUOROMETHYL)-2H-INDAZOL-3- YL]METHYL}BUTYL)BENZOYL]-β-ALANINE], the figure is 3.3 nM; as for `CCC[C@H](c1ccc(C(=O)NCCC(=O)O)cc1)[C@H](c1ccc(Cl)cc1)c1n[nH]c2c(F)cc(C)cc12` (single isomer, unassigned) [Example 37], 0.8 nM.
As to `CCCC(c1ccc(C(=O)NCCC(=O)O)cc1)C(c1ccc(Cl)cc1)c1nn(C)c2ccc(C(F)(F)F)cc12` (single isomer, unassigned) [Example 9, N-[4-(1-{(4-CHLOROPHENYL)[1-METHYL-5-(TRIFLUOROMETHYL)-1H- INDAZOL-3-YL]METHYL}BUTYL)BENZOYL]-β-ALANINE], the 50% inhibitory concentration (IC50) was found to be 1 nM.
Take `CCCC(c1ccc(C(=O)NCCC(=O)O)cc1)C(c1ccc(Cl)cc1)c1n[nH]c2c(C)cc(Cl)cc12` (single isomer, unassigned) [Example 1]: the “relative potency” value is listed as “most potent glucagon antagonist of the four stereoisomeric compounds” and the IC50 was determined as 0.6 nM.
Turning to `CCCC(c1ccc(C(=O)NCCC(=O)O)cc1)C(c1ccc(Cl)cc1)c1nn(C)c2c(Cl)cc(C(F)(F)F)cc12` (single isomer, unassigned) [Example 2, N-(4-{1-[[7-Chloro-1-Methyl-5-(Trifluoromethyl)-1H-Indazol-3-Yl](4-Chlorophenyl)Methyl]Butyl}Benzoyl)-β-Alanine], the IC50 was 0.7 nM.
`CCCC(c1ccc(C(=O)NCCC(=O)O)cc1)C(c1ccc(Cl)cc1)c1n[nH]c2c(Cl)cc(C(F)(F)F)cc12` (single isomer, unassigned) [Example 6, N-[4-(1-{(4-CHLOROPHENYL)[7-CHLORO-5-(TRIFLUOROMETHYL)-1H-INDAZOL- 3-YL]METHYL}BUTYL)BENZOYL]-β-ALANINE]: the IC50 amounted to 0.2 nM.
`CCCC(c1ccc(C(=O)NCCC(=O)O)cc1)C(c1ccc(Cl)cc1)c1n[nH]c2c(F)cc(-c3cccc(F)c3)cc12` (racemic) [Example 24] showed a 50% inhibitory concentration (IC50) of 1.7 nM.
